Like-named read-outs stand apart in the source and are kept apart here.
Key:
[1] = tested on: panel of cell lines derived from glioblastoma, breast, ovarian, prostate, endometrial and colorectal carcinomas carrying genetic alterations in PIK3CA or PTEN; assay: Antiproliferative effects of everolimus on a panel of cancer cell lines; type: cell-based, human; conditions: FIG. 7A
Description: The present pharmacogenomic analysis of non-transformed cells carrying cancer alleles point to a relationship between the occurrence of PIK3CA mutations and sensitivity to everolimus. The present inventors next assessed whether and to what extent these findings might be applicable to human cancer cells in which mutations in the PIK3CA pathway naturally occur alongside with additional genetic alterations. To this end a panel of cell lines derived from glioblastoma, breast, ovarian, prostate, endometrial and colorectal carcinomas which are known to carry genetic alterations in PIK3CA or PTEN (FIG. 7) were treated with everolimus. […] Everolimus-resistant cells (such as HT-29, HCT 116 and DLD-1) carried mutations in both PIK3CA and KRAS/BRAF.

[2] = tested on: phosphorylation of p70S6K, RpS6, AKT and MAPK in hTERT-HME1 WT and KI cells; assay: Biochemical effects of everolimus: immunoblot and ELISA of phospho-proteins; type: cell-based, human; conditions: for levels of phospho-MAPK: FIG. 16E
Description: (A, E) After 30 minutes' treatment with everolimus 500 nM, cells of the indicated genotype were lysed and immunoblotted with the anti-phospho-P70S6K, totalP70S6K, phospho-MAPK and total MAPK antibodies (B, C, D) The same lysates were also used for ELISA measurements of total AKT, phosphoAKT (Thr308), phosphoAKT (Ser473), total RpS6 and phosphoRpS6 levels. Numbers indicate the ratio of phosphorylated protein related to total protein levels and are normalized respect to the untreated (NT) hTERT-HME1 WT cells. DKI, Double Knock-In cells carrying both PIK3CA H1047R and KRAS G13D alleles.
SDS PAGE was performed using Invitrogen Precasted gels (Invitrogen Carlsbad, Calif.); western blotting transfer onto Hybond-C Extra membranes (Amersham, Amersham Biosciences, Uppsala, Sweden) was done following standard methods. The primary antibodies used for immunoblotting were: Anti-AKT (Cell Signaling, Technology, Danvers, Mass.); Anti-phospho-AKT S473 (Cell Signaling, Technology, Danvers, Mass.); Anti-Actin and Anti-Vinculin (Sigma-Aldrich, St. Louis, Mo.); Phospho-p44/42 Map kinase (Thr202/Tyr204) (Cell Signaling, Technology, Danvers, Mass.); Anti-phospho-EGFR Receptor (Tyr 1068) and Anti EGFR Receptor (Cell Signaling Technology, Danvers, Mass.).

[3] = tested on: hTERT-HME1 DKI cells carrying PIK3CA (H1047R) and EGFR (delE746-A750)
[4] = tested on: HCT 116 colorectal cancer cells and derivative clones (HKh-2, HKe-3, HK2-6, PIK3CA WT/mutant); assay: Viability (ATP assay) of HCT 116 cells and isogenic KRAS / PIK3CA derivative clones
Description: Results are expressed as percent of viability compared to cells treated with DMSO only ('control') and represent mean±SD of at least three independent observations.
After serial dilutions, 100 μl of drugs in serum free medium were added to cells with a multichannel pipette. Vehicle and medium-only containing wells were added as controls. Plates were incubated at 37° C. in 5% CO2 for 96 h, after which cell viability was assessed by ATP content using the CellTiter-Glo® Luminescent Assay (Promega Madison, Wis.).

[5] = tested on: hTERT-HME1 cells carrying PIK3CA (E545K and H1047R) KI; assay: Drug assay: cell viability by ATP content (96 h) and Hoechst/propidium iodide staining, KI versus parental cells; ΔKI pharmarray analysis; conditions: hTERT-HME1

CO[C@H]1C[C@@H]2CC[C@@H](C)[C@@](O)(O2)C(=O)C(=O)N2CCCC[C@H]2C(=O)O[C@H]([C@H](C)C[C@@H]2CC[C@@H](OCCO)[C@H](OC)C2)CC(=O)[C@H](C)/C=C(\C)[C@@H](O)[C@@H](OC)C(=O)[C@H](C)C[C@H](C)/C=C/C=C/C=C/1C [everolimus, Everolimus]
response of tumor cells with PIK3CA pathway alterations but no mutation in KRAS/BRAF [1]: sensitive | response of tumor cells carrying mutations in both PIK3CA and KRAS/BRAF ([1]; such as HT-29, HCT 116 and DLD-1): resistant | levels of phospho-MAPK ([2]; KRAS G13D mutated cells): decreased | levels of phospho-MAPK ([2]; WT cells and PIK3CA H1047R mutated cells): essentially unchanged | phospho-AKT ([2]; all genotypes, everolimus 500 nM, 30 minutes, FIG. 16C, D): increase | p70S6K phosphorylation ([2]; everolimus 500 nM, 30 minutes, FIG. 16A): abrogated | activated phospho-RpS6 levels ([2]; everolimus 500 nM, 30 minutes, FIG. 16B): decrease | ΔKI PIK3CA + EGFR ([3]; Log(M) −5.70): 0 | ΔKI PIK3CA + EGFR ([3]; Log(M) −6.70): 1.38 | ΔKI PIK3CA + EGFR ([3]; Log(M) −7.70): 0 | ΔKI PIK3CA + EGFR ([3]; Log(M) −8.70): 0.68 | ΔKI PIK3CA + EGFR ([3]; Log(M) −9.70): 0 | response of HCT 116 parental and isogenic cells carrying mutated KRAS ([4]; FIG. 7B): equally resistant | response of HCT 116 derivative cells retaining only the KRAS WT allele ([4]; HKh-2 and HKe-3, FIG. 7B): sensitive to everolimus | response of HCT 116 cells in which PIK3CA H1047R had been deleted ([4]; all clones retain mutated KRAS, FIG. 14A): non-responsive to everolimus | pharmarray: differential response of PIK3CA mutated cells versus WT ([5]; FIG. 5G): affecting preferentially | antiproliferative effect on PIK3CA KI clones versus WT ([5]; wide range of concentrations, FIG. 6A): significant antiproliferative effect only in mutated cells

— patent US20120115896A1, “ISOGENIC HUMAN CELL LINES COMPRISING MUTATED CANCER ALLELES AND PROCESS USING THE CELL LINES” (priority 2008, published 2012)
